Drawing on ChEMBL document CHEMBL3593195, “Endophytic Diaporthe sp. LG23 Produces a Potent Antibacterial Tetracyclic Triterpenoid” (2015), this text covers MIC for nine compounds.

Values after ≈ are worked out from the molar mass of the structure shown. Where only a bound is given, the exact number is not on record here.

What all share (assay type): functional
One test deals with Staphylococcus aureus. Kind of test: Antibacterial activity against Staphylococcus aureus DSM 799 incubated for 24 hrs by disk diffusion method.
A further test deals with Escherichia coli. In words: Antibacterial activity against Escherichia coli DSM 682 incubated for 24 hrs by disk diffusion method.
Another test concerns Bacillus subtilis. Kind of test: Antibacterial activity against Bacillus subtilis DSM 1088 incubated for 24 hrs by disk diffusion method.
A further test relates to Pseudomonas aeruginosa. Kind of test: Antibacterial activity against Pseudomonas aeruginosa DSM 22644 incubated for 24 hrs by disk diffusion method.
The test system of another test is Streptococcus pyogenes. Kind of test: Antibacterial activity against Streptococcus pyogenes DSM 11728 incubated for 24 hrs by disk diffusion method.

On to `CN[C@@H]1[C@H](O[C@H]2[C@H](O[C@H]3[C@H](O)[C@@H](O)[C@H](N=C(N)N)[C@@H](O)[C@@H]3N=C(N)N)O[C@@H](C)[C@]2(O)C=O)O[C@@H](CO)[C@H](O)[C@H]1O` [STREPTOMYCIN], for which the MIC is 5 µg/mL (≈ 8.6 µM) against Staphylococcus aureus (DSM 799, 24 h); 1 µg/mL (≈ 1.72 µM) in the test on Escherichia coli (DSM 682, 24 h); 5 µg/mL (≈ 8.6 µM) with Bacillus subtilis (DSM 1088, 24 h); 10 µg/mL (≈ 17.2 µM) in the test with Pseudomonas aeruginosa (DSM 22644, 24 h); over 10 µg/mL against Streptococcus pyogenes (DSM 11728, 24 h).
For the compound `CC(C)=CC[C@H](O)[C@@H](C)[C@H]1CC[C@@]2(C)c3ccc4c(c3C[C@@H](O)[C@]12C)[C@@H](O)C[C@H](O)C4(C)C`, the MIC in the test on Staphylococcus aureus (DSM 799, 24 h) was 5 µg/mL (≈ 10.9 µM); against Escherichia coli (DSM 682, 24 h), 5 µg/mL (≈ 10.9 µM); in the test with Bacillus subtilis (DSM 1088, 24 h) it was 2 µg/mL (≈ 4.38 µM); in the test with Pseudomonas aeruginosa (DSM 22644, 24 h), 2 µg/mL (≈ 4.38 µM); in the test on Streptococcus pyogenes (DSM 11728, 24 h), 0.1 µg/mL (≈ 0.219 µM).
As to GENTAMICIN, the minimum inhibitory concentration (MIC) was found to be 1 µg/mL in the test on Staphylococcus aureus; 1 µg/mL in the test on Escherichia coli; 1 µg/mL in the test on Bacillus subtilis; 1 µg/mL in the test on Pseudomonas aeruginosa; 10 µg/mL in the test with Streptococcus pyogenes.
As for `CC(C)[C@@H](C)/C=C/[C@@H](C)[C@H]1CC[C@H]2/C(=C/C(=O)O[C@]3(C)CCC=CC3=O)C(=O)CC[C@]12C`, the MIC with Staphylococcus aureus (DSM 799, 24 h) is 1 µg/mL (≈ 2.27 µM); in the test on Escherichia coli (DSM 682, 24 h), over 10 µg/mL; in the test on Bacillus subtilis (DSM 1088, 24 h), 5 µg/mL (≈ 11.3 µM); in the test on Pseudomonas aeruginosa (DSM 22644, 24 h), over 10 µg/mL; in the test with Streptococcus pyogenes (DSM 11728, 24 h), over 10 µg/mL.
As to `CO[C@]12CC[C@]3(C)[C@@H]([C@H](C)/C=C/[C@H](C)C(C)C)CC[C@H]3C1=CC(=O)O2`, the MIC in the test on Staphylococcus aureus (DSM 799, 24 h) was over 10 µg/mL; with Escherichia coli (DSM 682, 24 h), over 10 µg/mL; in the test with Bacillus subtilis (DSM 1088, 24 h) it was over 10 µg/mL; in the test on Pseudomonas aeruginosa (DSM 22644, 24 h), over 10 µg/mL; against Streptococcus pyogenes (DSM 11728, 24 h), over 10 µg/mL.
`CC(C)[C@@H](C)/C=C/[C@@H](C)[C@H]1CC[C@H]2C3=CC(=O)[C@@]4(O)C[C@@H](O)CC[C@]4(C)[C@@]3(O)CC[C@]12C`: the minimal inhibitory concentration (MIC) was over 10 µg/mL in the test on Staphylococcus aureus (DSM 799, 24 h); over 10 µg/mL in the test on Escherichia coli (DSM 682, 24 h); 5 µg/mL (≈ 11.2 µM) in the test with Bacillus subtilis (DSM 1088, 24 h); over 10 µg/mL in the test on Pseudomonas aeruginosa (DSM 22644, 24 h); over 10 µg/mL against Streptococcus pyogenes (DSM 11728, 24 h).
In the case of `CC(C)[C@@H](C)/C=C/[C@@H](C)[C@H]1CC[C@@]2(O)C3=CC(=O)[C@@]4(O)C[C@@H](O)CC[C@]4(C)[C@@]3(O)CC[C@]12C`, the MIC is over 10 µg/mL against Staphylococcus aureus (DSM 799, 24 h); over 10 µg/mL in the test with Escherichia coli (DSM 682, 24 h); over 10 µg/mL with Bacillus subtilis (DSM 1088, 24 h); over 10 µg/mL with Pseudomonas aeruginosa (DSM 22644, 24 h); over 10 µg/mL with Streptococcus pyogenes (DSM 11728, 24 h).
As for `CC(C)[C@@H](C)/C=C/[C@@H](C)[C@H]1CC[C@H]2C3=C[C@H](O)[C@@]4(O)C[C@@H](O)CC[C@]4(C)C3=CC[C@]12C`, the MIC against Staphylococcus aureus (DSM 799, 24 h) was over 10 µg/mL; against Escherichia coli (DSM 682, 24 h), over 10 µg/mL; in the test on Bacillus subtilis (DSM 1088, 24 h), over 10 µg/mL; against Pseudomonas aeruginosa (DSM 22644, 24 h) it was over 10 µg/mL; in the test with Streptococcus pyogenes (DSM 11728, 24 h), over 10 µg/mL.
As to `CC(C)[C@@H](C)/C=C/[C@@H](C)[C@H]1CCC2C3=CC(=O)O[C@@]3(O)CC[C@@]21C` (stereo not given in full) [DEMETHYLINCISTEROL A3], the minimal inhibitory concentration (MIC) against Staphylococcus aureus (DSM 799, 24 h) is over 10 µg/mL; against Escherichia coli (DSM 682, 24 h), over 10 µg/mL; with Bacillus subtilis (DSM 1088, 24 h) it was over 10 µg/mL; against Pseudomonas aeruginosa (DSM 22644, 24 h), over 10 µg/mL; in the test on Streptococcus pyogenes (DSM 11728, 24 h), over 10 µg/mL.
